Reference: patent publication US20120059011A1, “PHARMACEUTICAL COMPOSITIONS OF COMBINATIONS OF DIPEPTIDYL PEPTIDASE-4 INHIBITORS WITH PIOGLITAZONE” (priority 2009, published 2012)
Structures can show the parent of a compound that is named as a salt.

Test: chemical stability of pioglitazone HCl with lubricants (disproportionation to free base)
Type: physicochemical
Details: in contact with lubricants, such as magnesium stearate and sodium stearyl fumarate
Experimental: The pharmaceutical compositions of the present invention are prepared by wet processing methods. In one embodiment the pharmaceutical compositions are prepared by wet granulation methods, such as fluid bed granulation or high-shear granulation. In a class of this embodiment, the pharmaceutical compositions are prepared by fluid-bed granulation. Fluid bed granulation processing has the advantage of affording tablets with higher diametric strength. Further, wet processing methods utilizing an intragranular portion containing Sitagliptin phosphate monohydrate, Pioglitazone HCl, a binding agent, and optionally a disintegrant, enhance the chemical stability of Sitagliptin phosphate monohydrate and pioglitazone HCl. […] The fluid bed granulation method utilizing an intragranular portion containing Pioglitazone HCl, Sitagliptin phosphate monohydrate, a binding agent, and optionally a disintegrant, minimizes the disproportionation of Pioglitazone HCl to the pioglitazone free base.

disproportionation of Pioglitazone HCl to the Pioglitazone free base: react with lubricants
SMILES: CCc1ccc(CCOc2ccc(CC3SC(=O)NC3=O)cc2)nc1 (racemic) [Pioglitazone HCl, [(±)-5-[[4-[2-(5-ethyl-2-pyridinyl)ethoxy]phenyl]-methyl]-2,4-]thiazolidinedione monohydrochloride]
